From patent US7101900B2, “Benzyl amidoxime derivatives, intermediate products and method for their production and use as fungicides” (BASF Aktiengesellschaft, priority 1999, dated 2006)

Assays:
[1] = test system: powdery mildew of wheat (Erysiphe graminis forma specialis tritici); assay: Activity against mildew of wheat (protective spray test on wheat seedlings); assay type: in vivo; details: wheat seedlings c.v. Kanzler, dusted with spores 24 hours after spray coating dried, visual, total leaf area, after 7 days, untreated 95
Experimental: Activity Against Mildew of Wheat
Leaves of wheat seedlings c.v. “Kanzler” which had been grown in pots were sprayed to run off point with an aqueous preparation of active compound which had been prepared from a stock solution comprising 10% of active compound, 63% of cyclohexanone and 27% of emulsifier, and, 24 hours after the spray coating had dried on, dusted with spores of powdery mildew of wheat (Erysiphe graminis forma specialis tritici). The test plants were then placed in a greenhouse at 20–24° C. and 60–90% relative atmospheric humidity. After 7 days, the extent of the mildew development was determined visually in percent infection of the total leaf area.

[2] = test system: cucumber mildew (Sphaerotheca fuliginea); assay: Protective activity against cucumber mildew (spray test on cucumber seedlings); assay type: in vivo; details: cucumber seedlings c.v. Chinesische Schlange, inoculated 20 hours after spray coating dried, visual, total leaf area, after 20 days, untreated 90
Experimental: Protective Activity Against Cucumber Mildew
At the two-leaf stage, leaves of cucumber seedlings c.v. “Chinesische Schlange” which had been grown in pots were sprayed to run off point with an aqueous preparation of active compound which had been prepared from a stock solution comprising 10% of active compound, 63% of cyclohexanone and 27% of emulsifier. 20 hours after the spray coating had dried on, the plants were inoculated with an aqueous spore suspension of cucumber mildew (Sphaerotheca fuliginea). The plants were then cultivated in a greenhouse at 20–24° C. and 60–80% relative atmospheric humidity for 20 days. The extent of the mildew development was then determined visually in % infection of the total leaf area.

SMILES | % infection of the leaves after application of an aqueous preparation comprising 16 ppm of active compound [1] [%] | % infection of the leaves after application of an aqueous preparation comprising 63 ppm of active compound [2] [%]
O=C(Cc1ccccc1)NC(Cc1c(Cl)cccc1Cl)=NOCC1CC1 [No. 1, O-cyclopropylmethyl N-phenylacetyl-(2,6-dichlorophenyl)-acetamidoxime] | 3 | 10
O=C(Cc1ccccc1)NC(Cc1c(F)cccc1Cl)=NOCC1CC1 [No. 2, O-cyclopropylmethyl N-phenylacetyl-(2-chloro-6-fluorophenyl)-acetamidoxime] | 3 | 10
